Measured values as given in patent US6417159B1 (Queen's University at Kingston, priority 1996, dated 2002).
Entries after “also recorded” stand apart in the source; their conditions may differ.

Tests used:
[1] = target: T1, TrkA (Rattus norvegicus, UniProt P35739); assay: [125I]NGF affinity cross-linking to TrkA; type: binding; details: PC12 cells, 50 μM R3
T1 construct: endogenous in cells; host or cells: PC12
Method: FIG. 7A illustrates the influence of peptide R3 on affinity cross-linking of TrkA and p75^NTR. Intact PC12 cells were treated with 50 μM R3 for 24 h (preinc.) in medium, harvested with CMF medium, and suspended at a concentration of 10^6·ml^−1 (or 10^7·m^−1 for immunoprecipitation studies) in HKR buffer. Cells were then incubated in the presence or absence of R3 (coinc.) for 15 min at 37° C. and cooled in ice. Cross-linking was performed by incubating cells with 1 nM [^125I]-NGF for 2 h at 4° C., adding EDC ([…]) and NHS (2 mM) or BS^3 (0.4 mM) as indicated, and incubating for 30 min at 25° C. Cells were washed three times in HKR buffer and the pellet dissolved in reducing SDS sample buffer or in lysis buffer (1% NP-40, 10% glycerol, 1 mM PMSF, 10 μg-ml^−1 aprotinin, 1 μg/ml leupeptin, […] o-vanadate in TBS) for immunoprecipitation (lanes 4 and 8). For immunoprecipitation, the cellular debris was removed by centrifugation and the supernatant incubated with 1 μg anti-p75^NTR monoclonal Ab 192 (Cedarlane Laboratories Ltd.) or 1 μg anti-TrkA polyclonal Ab (a gift from Dr. W. Mobley, University of California, San Francisco) for 4 h at 4° C. Immunoprecipates were isolated by incubating with 50 μl of a 50% solution of protein A-SEPHAROSE™ (anti-Trk) or goat anti-mouse agarose (Ab 192) for 2 h at 4° C. Precipitates were washed 3 times in lysis buffer and dissolved in sample buffer. […]

[2] = tested on: PC12 cells; assay: NGF-mediated neurite growth by PC12 cells; type: cell-based, rat
Method: (§1) PC12 cells or PC12^nnr5 cells (Loeb et al., 1991) were seeded on poly-D-lysine-coated (0.1 mg·ml^−1, overnight) 96-well microculture dishes (Falcon) at approximately 800 cells per well with RPMI with 10% fetal calf serum. Peptides were added to replicate wells 48 hours before, or at the time of, addition of NGF. NGF was prepared by the method of Mobley et al. (1976) and used at 1-2 nM. Other additives were diluted at least 100-fold and added to the wells as described. At various times following incubation at 37° C., 5% CO2, wells were scored for neurite-bearing cells by serial counting of representative circumferences of each well.
(§2) A Leitz Diavert inverted microscope with phase optics was used to score neurite growth. For both PC12 cells and sensory neurons, a neurite was scored as such if its calibre from origin to terminal was approximately the same and the length was equal to or greater than 1.5 cell body diameters.

[3] = tested on: PC12^nnr5 cells; assay: NGF-mediated neurite growth by PC12nnr5 cells; type: cell-based, rat; details: absence or presence of R3 peptide
Method: as §1, §2

[4] = tested on: PC12 cells; assay: Basic fibroblast growth factor-mediated neurite growth by PC12 cells; type: cell-based, rat
[5] = tested on: ED8 chick DRG neurons; assay: NGF-mediated neurite growth by ED8 chick DRG sensory neurons; type: cell-based

T1 sequence (P35739 33-799): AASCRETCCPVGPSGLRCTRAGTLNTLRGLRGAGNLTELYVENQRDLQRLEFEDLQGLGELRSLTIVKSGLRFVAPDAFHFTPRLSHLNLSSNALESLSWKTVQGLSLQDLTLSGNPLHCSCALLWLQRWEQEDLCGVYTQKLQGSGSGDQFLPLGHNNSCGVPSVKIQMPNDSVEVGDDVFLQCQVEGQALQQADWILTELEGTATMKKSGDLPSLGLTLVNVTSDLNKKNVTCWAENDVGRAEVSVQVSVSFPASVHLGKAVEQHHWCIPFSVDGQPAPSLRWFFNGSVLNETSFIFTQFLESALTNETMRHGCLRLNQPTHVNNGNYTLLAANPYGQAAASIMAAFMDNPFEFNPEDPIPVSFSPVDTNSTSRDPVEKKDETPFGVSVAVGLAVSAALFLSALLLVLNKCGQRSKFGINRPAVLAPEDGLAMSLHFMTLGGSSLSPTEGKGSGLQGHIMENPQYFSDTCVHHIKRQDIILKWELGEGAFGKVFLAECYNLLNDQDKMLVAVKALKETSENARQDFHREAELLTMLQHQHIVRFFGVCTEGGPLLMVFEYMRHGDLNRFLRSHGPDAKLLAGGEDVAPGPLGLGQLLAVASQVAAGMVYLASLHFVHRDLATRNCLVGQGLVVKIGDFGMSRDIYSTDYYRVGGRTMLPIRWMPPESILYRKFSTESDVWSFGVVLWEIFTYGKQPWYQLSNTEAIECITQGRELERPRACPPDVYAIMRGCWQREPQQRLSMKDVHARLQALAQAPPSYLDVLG

## LDALLAALRRIQR [R3]
[1]
  Affinity cross-linking of [125I]NGF to TrkA monomers or homodimers, in words: not affected
[2]; 10 mM Mg^+2
  Effect of R3 on enhancement of NGF-mediated neurite growth in presence of Mg2+, in words: inhibited completely
[2]; PC12 cells pre-treated with pertussis toxin
  Neurite growth-enhancing effect of R3 in presence of pertussis toxin, in words: did not influence
[2]; PC12 cells, peptide co-incubated with NGF
  Effect on NGF-mediated neurite growth, co-incubation, in words: enhanced temporally the neurite growth response
[2]; all concentrations of R3
  Time of maximal effect on NGF-mediated neurite growth: 40 to 48 h
[2]; peptide present 24 or 48 hours prior to addition of NGF
  Effect on neurite growth response to NGF, pre-incubation, in words: inhibited transiently
[3]
  Neurite growth in PC12nnr5 cells with NGF, in words: no effects on neurite growth
[4]
  Influence on basic fibroblast growth factor-mediated neurite growth, in words: no influence
[5]; (peptide with NGF − NGF alone)/(R3 with NGF − NGF alone) ×100, scored at 43, 44 and 48 hours, M ± SEM, n = 3 assays
  % of Control Response DRG: 100 ± 16%
[5]; ED8 chick DRG neurons, 10 μM R3
  Effect on NGF-mediated neurite growth, co-incubation, in words: enhancing effect; also recorded: markedly increased the response to NGF between 4 and 8 hours
